The values below come from patent US10421760B2, “Pyrrolo[2,3-d]pyrimidine compound or salt thereof” (TAIHO PHARMACEUTICAL CO., LTD., priority 2015, dated 2019).

What is called pIC50 is the negative decadic logarithm of the IC50, by convention in mol/L.

pIC50: −log10 of the molar value.

The target in assay [1] is purified recombinant human JAK1 protein (Homo sapiens (Human), UniProt P23458). The assay is described as follows: JAK1 kinase-inhibiting activity (mobility shift, LabChip EZ Reader II). The assay is classed as biochemical. To be noted: ATP 75 μM, 25° C., 120 minutes. The method, then:
1) Measurement of JAK1 Kinase-Inhibiting Activity
The activity of the compound of the present invention to inhibit the activity of JAK1 kinase was measured.
Among materials for the measurement of this inhibiting activity, a substrate peptide and a kinase protein were acquired as follows. As such a substrate peptide, a substrate peptide for QSS Assist JAK1-MSA assay kit (Carna Biosciences, Inc.) was purchased. As such a kinase protein, a purified recombinant human JAK1 protein (Carna Biosciences, Inc.) was purchased.
The method for measuring the inhibiting activity is as follows. First, the compounds of the present invention were each dissolved in dimethyl sulfoxide (DMSO), and a serial dilution was then prepared using DMSO. Subsequently, a serial dilution solution of the compound (the final concentration of DMSO upon a kinase reaction: 5.0%) or DMSO (final concentration: 5.0%) was mixed with a solution comprising the substrate peptide (final concentration: 1 μM), magnesium chloride (final concentration: 5 mM) and ATP (final concentration: 75 μM) in a buffer for kinase reaction (20 mM HEPES (pH 7.5), 2 mM dithiothreitol and 0.01% Triton X-100). Thereafter, a JAK1 protein was further added to the mixed solution, and the obtained mixture was then incubated at 25° C. for 120 minutes to carry out a kinase reaction. To the reaction solution, EDTA was added to a final concentration of 30 mM, so as to terminate the reaction. Finally, using LabChip EZ Reader II (Perkin Elmer Corp.), an unphosphorylated substrate peptide (S) and a phosphorylated peptide (P) were subjected to microchannel capillary electrophoresis, so that the two peptides were separated from each other and were then detected. The amount of a phosphorylation reaction was obtained based on the heights of the peaks of S and P, and the concentration of the compound capable of inhibiting 50% of the phosphorylation reaction was defined as an IC50 value (nM).

Assay [2] deals with purified recombinant human JAK3 protein (Homo sapiens (Human), UniProt P52333). The assay is described as follows: JAK3 kinase-inhibiting activity (mobility shift, LabChip EZ Reader II). To be noted: ATP 5 μM, 25° C., 80 minutes. The assay is classed as biochemical. The protocol: 3) Measurement of JAK3 Kinase-Inhibiting Activity
The activity of the compound of the present invention to inhibit the activity of JAK3 kinase was measured.
Among materials for the measurement of this inhibiting activity, a substrate peptide and a kinase protein were acquired as follows. As such a substrate peptide, a substrate peptide for QSS Assist JAK3-MSA assay kit (Carna Biosciences, Inc.) was purchased. As such a kinase protein, a purified recombinant human JAK3 protein (Carna Biosciences, Inc.) was purchased.
The method for measuring the inhibiting activity is as follows. First, a serial dilution of the compound of the present invention was prepared by the same method as that described in the above section regarding JAK1. This serial dilution solution (the final concentration of DMSO upon a kinase reaction: 5.0%) or DMSO (final concentration: 5.0%) was mixed with a solution comprising the substrate peptide (final concentration: 1 μM), magnesium chloride (final concentration: 5 mM) and ATP (final concentration: 5 μM) in a buffer for kinase reaction (20 mM HEPES (pH 7.5), 2 mM dithiothreitol and 0.01% Triton X-100). Thereafter, a JAK3 protein was further added to the mixed solution, and the obtained mixture was then incubated at 25° C. for 80 minutes to carry out a kinase reaction. To the reaction solution, EDTA was added to a final concentration of 30 mM, so as to terminate the reaction. After termination of the reaction, the measurement and the data analysis were carried out by the same methods as those described in the above section regarding JAK1.

The test system of the next assay is human PBMC. The assay is described as follows: IL-2-dependent growth of human peripheral blood mononuclear cells (CellTiter-Glo). It counts as cell-based. To be noted: 48 h, IL-2 2 ng/mL stimulation, 2 days. The protocol: The activity of the compound of the present invention to inhibit the IL-2-dependent growth reaction of human PBMC, which is caused by JAK3, was measured (Arthritis Rheum. 2010; 62(8): 2283-93).
Using a medium comprising 10 μg/mL PHA-M (Sigma) (which is RPMI-1640 (Sigma) comprising 10% human serum type AB (MP Biomedicals)), human PBMC (C.T.L.) (cell density: 1×10^6 cells/mL) was cultured at 37° C. in a culture vessel comprising 5% carbon dioxide for 3 days. Thereafter, the culture was washed with RPMI-1640 four times, and a medium (RPMI-1640 comprising 10% human serum type AB) was then added to the resultant culture to prepare a cell suspension. The cells (1×10^4 cells per well) and the serially diluted compound of the present invention were added to each well of a 96-well U-bottom microplate, and the thus obtained mixture was then cultured at 37° C. in a culture vessel comprising 5% carbon dioxide for 30 minutes. After completion of the culture, recombinant human IL-2 (Peprotech) was added to the culture to a final concentration of 2 ng/mL, and the obtained mixture was then stirred at 37° C. in a culture vessel comprising 5% carbon dioxide for 2 days (1×10^4 cells/100 μl/each well). After completion of the culture, the resultant was left at a room temperature for 30 minutes, and 100 μl of CellTiter-Glo Luminescent Cell Viability Assay (Promega) was then added to the resultant, followed by stirring it. Thereafter, the reaction mixture was left for 10 minutes, and the amount of a luminescence derived from living cells in each well was then measured using a microplate reader (TECAN). The inhibition rate of the present compound to the cell growth caused by IL-2 stimulation was calculated, and the concentration of the compound capable of inhibiting 50% of the cell growth was defined as an IC50 value (nM).
(In ATP-based viability assays light output follows the ATP content of the culture.)

Assay [3] concerns the target purified recombinant human JAK2 protein (Homo sapiens (Human), UniProt O60674). As to the kind of experiment: JAK2 kinase-inhibiting activity (mobility shift, LabChip EZ Reader II). The assay is classed as biochemical. To be noted: ATP 10 μM, 25° C., 80 minutes. The protocol:
2) Measurement of JAK2 Kinase-Inhibiting Activity
The activity of the compound of the present invention to inhibit the activity of JAK2 kinase was measured.
Among materials for the measurement of this inhibiting activity, a substrate peptide and a kinase protein were acquired as follows. As such a substrate peptide, FL-Peptide 22 (Perkin Elmer Corp.) was purchased. As such a kinase protein, a purified recombinant human JAK2 protein (Carna Biosciences, Inc.) was purchased.
The method for measuring the inhibiting activity is as follows. First, a serial dilution of the compound of the present invention was prepared by the same method as that described in the above section regarding JAK1. This serial dilution solution (the final concentration of DMSO upon a kinase reaction: 5.0%) or DMSO (final concentration: 5.0%) was mixed with a solution comprising the substrate peptide (final concentration: 1 μM), magnesium chloride (final concentration: 10 mM) and ATP (final concentration: 10 μM) in a buffer for kinase reaction (15 mM Tris (pH 7.5), 2 mM dithiothreitol and 0.01% Tween 20). Thereafter, a JAK2 protein was further added to the mixed solution, and the obtained mixture was then incubated at 25° C. for 80 minutes to carry out a kinase reaction. To the reaction solution, EDTA was added to a final concentration of 30 mM, so as to terminate the reaction. After termination of the reaction, the measurement and the data analysis were carried out by the same methods as those described in the above section regarding JAK1.

For assay [4], the system named is IL-2-induced IFN-γ production. As to the kind of experiment: Mouse IL-2-induced IFN-γ production test. It counts as in vivo. To be noted: oral 1 mg/kg and 3 mg/kg, serum 3 hours after IL-2, BALB/c mice. The protocol:
The inhibitory activity of the compound of the present invention and the compounds of comparative examples on mouse IL-2-induced IFN-γ production caused by JAK3 was measured (Arthritis Rheum. 2010; 62 (8): 2283-93, Inflammation Research 2015; 64 (1): 41-51).
Seven-week-old male BALB/c mice (Charles River Japan) were divided into five groups (6 mice per group), namely, a vehicle group, a Compound 7 (1 mpk) group, a Compound 7 (3 mpk) group, a Comparative Example 12 (1 mpk) group, and a Comparative Example 12 (3 mpk) group. Compound 7 and the compound of Comparative Example 12 were each administered to the 1 mpk group and the 3 mpk group via oral administration at doses of 1 mg/kg and 3 mg/kg, respectively. […] Three hours after administration of IL-2, blood was collected from all of the five groups, and the IFN-γ concentration in the serum was measured using BD In Vivo Capture Assay for Mouse IFN-γ (BD Biosciences). The relative amount of IFN-γ generated by IL-2 stimulation was calculated according to the following calculation formula: Relative amount of IFN-γ=(IFN-γ concentration of each group)×100/(IFN-γ concentration of vehicle group), and the results are shown in FIG. 1 (mean value±standard error: regarding vs Vehicle, Dunnett test, *: p<0.05, ***: p<0.001; regarding vs Comparative Example 12 (3 mpk), Student t-test, ##: p<0.01).

Sequence of purified recombinant human JAK1 protein (P23458 whole entry): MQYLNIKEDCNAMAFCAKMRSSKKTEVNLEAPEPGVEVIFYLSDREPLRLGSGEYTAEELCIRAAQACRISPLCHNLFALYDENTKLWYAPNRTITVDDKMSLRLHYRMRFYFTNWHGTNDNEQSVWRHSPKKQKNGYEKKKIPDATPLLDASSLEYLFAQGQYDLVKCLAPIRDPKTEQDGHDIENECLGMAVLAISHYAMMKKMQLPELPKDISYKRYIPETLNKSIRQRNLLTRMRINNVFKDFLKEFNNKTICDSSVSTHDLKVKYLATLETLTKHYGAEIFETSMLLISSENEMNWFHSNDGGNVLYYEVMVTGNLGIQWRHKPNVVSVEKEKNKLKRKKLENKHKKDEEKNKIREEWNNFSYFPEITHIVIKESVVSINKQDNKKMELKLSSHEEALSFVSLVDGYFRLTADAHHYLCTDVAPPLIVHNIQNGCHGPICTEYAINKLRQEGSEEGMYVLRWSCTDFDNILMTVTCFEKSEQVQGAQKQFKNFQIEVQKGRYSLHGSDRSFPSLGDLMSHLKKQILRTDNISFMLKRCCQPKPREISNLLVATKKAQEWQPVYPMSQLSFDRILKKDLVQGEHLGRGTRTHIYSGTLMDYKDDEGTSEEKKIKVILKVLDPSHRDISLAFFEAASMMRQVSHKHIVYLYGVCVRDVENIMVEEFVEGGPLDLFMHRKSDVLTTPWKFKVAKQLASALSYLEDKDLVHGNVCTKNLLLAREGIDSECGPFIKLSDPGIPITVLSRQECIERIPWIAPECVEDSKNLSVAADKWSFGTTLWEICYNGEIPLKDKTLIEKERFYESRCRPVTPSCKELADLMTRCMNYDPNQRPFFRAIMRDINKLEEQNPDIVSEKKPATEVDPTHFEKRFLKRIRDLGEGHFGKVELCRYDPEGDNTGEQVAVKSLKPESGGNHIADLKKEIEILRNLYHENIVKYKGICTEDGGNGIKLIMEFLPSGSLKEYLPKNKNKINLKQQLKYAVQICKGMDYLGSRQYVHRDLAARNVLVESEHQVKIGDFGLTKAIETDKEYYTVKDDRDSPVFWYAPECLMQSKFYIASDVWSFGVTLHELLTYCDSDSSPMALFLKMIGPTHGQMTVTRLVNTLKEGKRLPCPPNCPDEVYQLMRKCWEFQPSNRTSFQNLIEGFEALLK
Sequence of purified recombinant human JAK2 protein (O60674 whole entry): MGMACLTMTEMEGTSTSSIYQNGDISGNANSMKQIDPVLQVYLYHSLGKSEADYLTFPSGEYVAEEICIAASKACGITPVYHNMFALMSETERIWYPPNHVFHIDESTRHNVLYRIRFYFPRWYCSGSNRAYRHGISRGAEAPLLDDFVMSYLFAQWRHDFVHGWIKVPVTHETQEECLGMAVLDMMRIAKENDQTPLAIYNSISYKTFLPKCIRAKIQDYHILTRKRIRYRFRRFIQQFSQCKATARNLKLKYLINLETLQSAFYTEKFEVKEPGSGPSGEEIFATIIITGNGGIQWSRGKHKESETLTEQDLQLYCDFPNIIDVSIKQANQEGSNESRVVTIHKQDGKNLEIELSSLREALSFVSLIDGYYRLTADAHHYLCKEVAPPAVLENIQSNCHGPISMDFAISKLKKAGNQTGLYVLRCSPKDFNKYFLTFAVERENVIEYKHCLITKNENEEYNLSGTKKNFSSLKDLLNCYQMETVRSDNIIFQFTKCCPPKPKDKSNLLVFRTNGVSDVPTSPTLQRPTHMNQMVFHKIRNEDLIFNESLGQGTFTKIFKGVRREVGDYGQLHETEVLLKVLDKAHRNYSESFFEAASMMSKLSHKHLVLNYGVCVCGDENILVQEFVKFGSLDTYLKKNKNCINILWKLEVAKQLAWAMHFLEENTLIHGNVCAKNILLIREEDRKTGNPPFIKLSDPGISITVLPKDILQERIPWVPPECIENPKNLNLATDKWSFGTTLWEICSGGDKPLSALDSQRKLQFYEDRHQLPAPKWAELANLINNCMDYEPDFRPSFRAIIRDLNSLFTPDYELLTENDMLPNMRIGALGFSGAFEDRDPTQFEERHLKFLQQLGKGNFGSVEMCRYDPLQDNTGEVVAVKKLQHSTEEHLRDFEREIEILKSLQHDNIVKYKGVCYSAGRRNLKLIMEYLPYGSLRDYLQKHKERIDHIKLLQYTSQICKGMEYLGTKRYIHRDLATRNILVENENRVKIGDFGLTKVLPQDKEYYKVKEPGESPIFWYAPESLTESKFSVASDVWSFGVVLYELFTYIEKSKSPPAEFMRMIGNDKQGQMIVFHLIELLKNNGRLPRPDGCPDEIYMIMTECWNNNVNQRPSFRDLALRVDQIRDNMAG
Sequence of purified recombinant human JAK3 protein (P52333 whole entry): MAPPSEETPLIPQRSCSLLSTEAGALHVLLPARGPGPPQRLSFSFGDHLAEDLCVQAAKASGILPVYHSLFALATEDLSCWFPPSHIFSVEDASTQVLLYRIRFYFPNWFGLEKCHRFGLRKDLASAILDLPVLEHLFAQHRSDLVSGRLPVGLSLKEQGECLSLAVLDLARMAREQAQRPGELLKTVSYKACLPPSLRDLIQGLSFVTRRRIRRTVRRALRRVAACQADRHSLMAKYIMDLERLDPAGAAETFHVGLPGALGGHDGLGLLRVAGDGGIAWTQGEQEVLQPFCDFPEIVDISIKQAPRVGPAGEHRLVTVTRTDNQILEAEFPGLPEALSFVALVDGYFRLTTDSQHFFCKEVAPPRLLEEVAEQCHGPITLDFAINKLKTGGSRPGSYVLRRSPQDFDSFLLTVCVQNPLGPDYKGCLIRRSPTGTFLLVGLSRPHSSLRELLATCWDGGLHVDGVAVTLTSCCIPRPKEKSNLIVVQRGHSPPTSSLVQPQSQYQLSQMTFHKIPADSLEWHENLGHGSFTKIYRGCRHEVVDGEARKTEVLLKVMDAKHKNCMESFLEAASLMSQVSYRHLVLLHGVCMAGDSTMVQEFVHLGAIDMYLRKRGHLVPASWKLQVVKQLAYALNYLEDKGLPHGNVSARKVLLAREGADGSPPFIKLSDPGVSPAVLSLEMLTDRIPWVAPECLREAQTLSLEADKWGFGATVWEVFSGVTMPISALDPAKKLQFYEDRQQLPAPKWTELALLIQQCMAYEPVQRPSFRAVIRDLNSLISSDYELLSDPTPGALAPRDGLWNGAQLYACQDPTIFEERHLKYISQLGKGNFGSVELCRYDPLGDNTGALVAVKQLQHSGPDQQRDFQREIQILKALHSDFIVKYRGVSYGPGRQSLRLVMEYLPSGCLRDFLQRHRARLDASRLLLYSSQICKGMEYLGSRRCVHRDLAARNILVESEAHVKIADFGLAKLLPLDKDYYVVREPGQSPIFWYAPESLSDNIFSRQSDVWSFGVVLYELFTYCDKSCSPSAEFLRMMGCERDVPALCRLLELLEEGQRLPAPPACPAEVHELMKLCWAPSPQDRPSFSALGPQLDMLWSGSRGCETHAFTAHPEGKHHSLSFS

`C=CC(=O)N[C@H]1CCC[C@@H](c2ncnc3[nH]cc(-c4ccco4)c23)C1` [Comparative Example 11(a), N-((1S,3R)-3-(5-(Furan-2-yl)-7H-pyrrolo[2,3-d]pyrimidin-4-yl)cyclohexyl)acrylamide, reference compound]: the pIC50 in assay [1] was less than 5.00; in assay [2], 7.68; with human PBMC, less than 5.52; in assay [3] it was 5.61.

For the molecule `C=CC(=O)N[C@H]1CCC[C@H](c2ncnc3[nH]cc(-c4ccco4)c23)C1` [Comparative Example 11(b), N-((1S,3S)-3-(5-(Furan-2-yl)-7H-pyrrolo[2,3-d]pyrimidin-4-yl)cyclohexyl)acrylamide, reference compound], the pIC50 was less than 5.00 in assay [1], 7.72 in assay [2], 5.71 in the assay on human PBMC and 6.06 in assay [3].

As for `C=CC(=O)Nc1cccc(-c2ncnc3[nH]cc(-c4ccccc4)c23)c1` [Comparative Example 12, N-(3-(5-Phenyl-7H-pyrrolo[2,3-d]pyrimidin-4-yl)phenyl)acrylamide, reference compound], the pIC50 is less than 6.00 in assay [1], 10.05 in assay [2], 6.26 with human PBMC and less than 6.00 in assay [3]. Besides, the “suppression of IFN-γ production in vivo” value in assay [4] is given as “did not exhibit such a significant IFN-γ production-suppressing action”.

`C=CC(=O)NC1CCC=C(c2ncnc3[nH]cc(-c4cccs4)c23)C1` (centres unmarked) [Compound 2, N-(3-(5-(Thiophen-2-yl)-7H-pyrrolo[2,3-d]pyrimidin-4-yl)cyclohex-3-en-1-yl)acrylamide]: the pIC50 in assay [1] was 6.05; in assay [2], more than 9.52; in the assay on human PBMC it was 6.96; in assay [3] it was 6.32.

Take `C=CC(=O)NC1CCC=C(c2ncnc3[nH]cc(-c4ccco4)c23)C1` (centres unmarked) [Compound 5, N-(3-(5-(Furan-2-yl)-7H-pyrrolo[2,3-d]pyrimidin-4-yl)cyclohex-3-en-1-yl)acrylamide]: the pIC50 in assay [1] is 6.14; in assay [2], more than 9.52; in the assay with human PBMC, 7.42; in assay [3], 6.37.

With `C=CC(=O)N[C@H]1CCC=C(c2ncnc3[nH]cc(-c4ccco4)c23)C1` [Compound 7, (S)—N-(3-(5-(Furan-2-yl)-7H-pyrrolo[2,3-d]pyrimidin-4-yl)cyclohex-3-en-1-yl)acrylamide], the pIC50 in assay [1] is 6.36; in assay [2] it was more than 9.52; with human PBMC, 7.74; in assay [3] it was 6.48.

Regarding `C=CC(=O)NC1CC=C(c2ncnc3[nH]cc(-c4ccco4)c23)C1` (centres unmarked) [Compound 8, N-(3-(5-(Furan-2-yl)-7H-pyrrolo[2,3-d]pyrimidin-4-yl)cyclopent-3-en-1-yl)acrylamide], the pIC50 in assay [1] was 5.85; in assay [2], more than 9.52; in the assay with human PBMC, 7.08; in assay [3], 6.37.

Take `C=CC(=O)NC1CC=C(c2ncnc3[nH]cc(-c4ccccc4)c23)C1` (centres unmarked) [Compound 9, N-(3-(5-Phenyl-7H-pyrrolo[2,3-d]pyrimidin-4-yl)cyclopent-3-en-1-yl)acrylamide]: the pIC50 in assay [1] was 5.68; in assay [2], more than 9.52; in the assay with human PBMC, 7.00; in assay [3], 6.06.

`C=CC(=O)NC1C=C(c2ncnc3[nH]cc(-c4cccs4)c23)CCC1` (centres unmarked) [Compound 13, N-(3-(5-(Thiophen-2-yl)-7H-pyrrolo[2,3-d]pyrimidin-4-yl)cyclohex-2-en-1-yl)acrylamide]: the pIC50 in assay [1] is 5.49; in assay [2], more than 9.52; in the assay with human PBMC it was 6.96; in assay [3] it was 6.31.

In the case of `C=CC(=O)NC1C=C(c2ncnc3[nH]cc(-c4ccsc4)c23)CCC1` (centres unmarked) [Compound 14, N-(3-(5-(Thiophen-3-yl)-7H-pyrrolo[2,3-d]pyrimidin-4-yl)cyclohex-2-en-1-yl)acrylamide], the pIC50 is 5.25 in assay [1], more than 9.52 in assay [2], 6.96 with human PBMC and 5.92 in assay [3].
